US12441725B2, “ISO-citrate dehydrogenase (IDH) inhibitor” (ZHEJIANG METON PHARMACEUTICAL CO., LTD, priority 2019, dated 2025)

Assays:
[1] = biological target: T1, IDH (endogenous IDH1 R132C) in HT1080 cell (Homo sapiens, UniProt O75874, R132C); assay: Cell-based assay for IDH inhibition (decrease of D-2-HG) in HT1080 cells; conditions: human fibrosarcoma cell line HT1080, 16 hours treatment, D-2-HG by LC-MS, in triplet
T1 construct: which harbor endogenous heterozygous IDH1 R132C and R132H mutation respectively and accumulate D-2-HG
How it was run: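 LC-MS/MS quantification of D-2-HG, normalized to glutamate, follows a 16 h compound exposure of IDH1 R132C HT1080 cells in DMEM with 10% FBS. Extraction uses pre-chilled 40% methanol/40% acetonitrile in water. Triplicate determinations; IC50 from D-2-HG levels relative to DMSO-treated cells.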

IDH1 R132C = biological target: T2, IDH1 R132C (Homo sapiens, UniProt O75874, R132C); assay: Biochemical assay for IDH inhibition (NADPH fluorescence), mutant IDH1 R132C; conditions: 25 nM IDH1-R132C, 1 hour pre-incubation, in triplet
T2 construct: 6xHis
How it was run: (§1)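 The read-out was the linear-phase loss of NADPH fluorescence (340/460 nm) over 15 min, background-subtracted and normalized to DMSO wells, giving triplicate IC50 values. Beforehand, R132H (50 nM) or R132C (25 nM) was exposed to compound for 1 h at room temperature with 1.33 mM α-KG at pH 7.5, and the reaction was triggered by adding an 80 μM NADPH solution.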

IDH1 R132H = biological target: T3, IDH1 R132H (Homo sapiens, UniProt O75874, R132H); assay: Biochemical assay for IDH inhibition (NADPH fluorescence), mutant IDH1 R132H; conditions: 50 nM IDH1-R132H, 1 hour pre-incubation, in triplet
T3 construct: 6xHis
How it was run: as §1

T1 sequence (O75874 2-414 R132C): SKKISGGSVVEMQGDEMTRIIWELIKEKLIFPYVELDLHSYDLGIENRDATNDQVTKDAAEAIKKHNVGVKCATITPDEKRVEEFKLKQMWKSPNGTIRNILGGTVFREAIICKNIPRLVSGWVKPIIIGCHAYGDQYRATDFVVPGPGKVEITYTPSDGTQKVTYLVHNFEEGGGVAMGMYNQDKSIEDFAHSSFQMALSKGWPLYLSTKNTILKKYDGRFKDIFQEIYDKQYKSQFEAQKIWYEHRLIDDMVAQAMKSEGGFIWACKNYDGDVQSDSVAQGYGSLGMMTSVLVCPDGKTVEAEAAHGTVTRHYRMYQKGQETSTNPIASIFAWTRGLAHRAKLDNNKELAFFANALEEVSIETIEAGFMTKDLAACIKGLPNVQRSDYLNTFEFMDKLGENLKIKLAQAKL
T2 sequence (O75874 whole entry R132C): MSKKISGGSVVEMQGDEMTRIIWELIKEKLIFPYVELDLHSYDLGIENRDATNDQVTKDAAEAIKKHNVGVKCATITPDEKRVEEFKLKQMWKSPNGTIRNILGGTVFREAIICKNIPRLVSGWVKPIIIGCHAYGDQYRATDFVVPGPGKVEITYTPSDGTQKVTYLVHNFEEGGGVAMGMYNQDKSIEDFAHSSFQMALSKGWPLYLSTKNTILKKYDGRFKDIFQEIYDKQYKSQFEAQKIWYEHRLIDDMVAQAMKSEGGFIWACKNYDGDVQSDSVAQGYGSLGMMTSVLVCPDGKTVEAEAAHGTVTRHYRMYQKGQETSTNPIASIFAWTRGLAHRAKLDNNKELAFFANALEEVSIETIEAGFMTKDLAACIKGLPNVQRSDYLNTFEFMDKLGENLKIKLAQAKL
T3 sequence (O75874 whole entry R132H): as the sequence (O75874 whole entry R132C) above, with C132H counted along it

Question: With CCN1Cc2c(ccnc2N[C@@H](C)c2cc(F)c(-c3cc(C4(F)CC4)cc(C)n3)cc2F)C1=O [Compound 131, (S)-4-((1-(2,5-difluoro-4-(4-(1-fluorocyclopropyl)-6-methylpyridin-2-yl)phenyl)ethyl)amino)-2-ethyl-2,3-dihydro-1H-pyrrolo[3,4-c]pyridin-1-one] as the compound, how does the IC50 [1] read?
Answer: < 100 nM

Question: What about the IC50 (IDH1 R132C) of the same compound?
Answer: < 100 nM

Question: And the IC50 (IDH1 R132H)?
Answer: < 100 nM

Question: How did the IC50 [1] turn out when CCN1Cc2c(ccnc2N[C@@H](C)c2cc(F)c(-c3cc(C(C)(C)F)ncc3OC)cc2F)C1=O [Compound 132, (S)-4-((1-(2,5-difluoro-4-(2-(2-fluoropropan-2-yl)-5-methoxypyridin-4-yl)phenyl)ethyl)amino)-2-ethyl-2,3-dihydro-1H-pyrrolo[3,4-c]pyridin-1-one] was run?
Answer: 100 to 500 nM

Question: What about the IC50 (IDH1 R132C) of the same compound?
Answer: < 100 nM

Question: And the IC50 (IDH1 R132H)?
Answer: < 100 nM

Question: For CCN1Cc2c(ccnc2N[C@@H](C)c2cc(F)c(-c3cc(C(C)(C)F)c(F)c(C)n3)cc2F)C1=O [Compound 133, (S)-4-((1-(2,5-difluoro-4-(5-fluoro-4-(2-fluoropropan-2-yl)-6-methylpyridin-2-yl)phenyl)ethyl)amino)-2-ethyl-2,3-dihydro-1H-pyrrolo[3,4-c]pyridin-1-one], which IC50 [1] is on record?
Answer: < 100 nM

Question: What about the IC50 (IDH1 R132C) of the same compound?
Answer: < 100 nM

Question: What about the IC50 (IDH1 R132H) of the same compound?
Answer: < 100 nM

Question: Which IC50 [1] does the source give for CCN1Cc2c(ccnc2N[C@@H](C)c2cc(F)c(-c3nc(C)cc(C(C)(C)F)c3F)cc2F)C1=O [Compound 134, (S)-4-((1-(2,5-difluoro-4-(3-fluoro-4-(2-fluoropropan-2-yl)-6-methylpyridin-2-yl)phenyl)ethyl)amino)-2-ethyl-2,3-dihydro-1H-pyrrolo[3,4-c]pyridin-1-one] here?
Answer: < 100 nM

Question: What about the IC50 (IDH1 R132C) of the same compound?
Answer: < 100 nM

Question: What about the IC50 (IDH1 R132H) of the same compound?
Answer: < 100 nM

Question: CCN1Cc2c(ccnc2N[C@@H](C)c2cc(F)c(-c3cc(C(C)(C)F)c(OC)cn3)cc2F)C1=O [Compound 135, (S)-4-((1-(2,5-difluoro-4-(4-(2-fluoropropan-2-yl)-5-methoxypyridin-2-yl)phenyl)ethyl)amino)-2-ethyl-2,3-dihydro-1H-pyrrolo[3,4-c]pyridin-1-one] was tested. Which IC50 [1] did it give?
Answer: < 100 nM

Question: What about the IC50 (IDH1 R132C) of the same compound?
Answer: < 100 nM

Question: And the IC50 (IDH1 R132H)?
Answer: < 100 nM

Question: For CCN1Cc2c(ccnc2N[C@@H](C)c2cc(F)c(-c3cc(C(C)(C)F)c(Cl)cn3)cc2F)C1=O [Compound 136, (S)-4-((1-(4-(5-chloro-4-(2-fluoropropan-2-yl)pyridin-2-yl)-2,5-difluorophenyl)ethyl)amino)-2-ethyl-2,3-dihydro-1H-pyrrolo[3,4-c]pyridin-1-one], which IC50 [1] is on record?
Answer: < 100 nM

Question: And the IC50 (IDH1 R132C)?
Answer: < 100 nM

Question: What about the IC50 (IDH1 R132H) of the same compound?
Answer: < 100 nM

Question: With CCN1Cc2c(ccnc2N[C@@H](C)c2cc(F)c(-c3cc(C(C)(C)F)c(F)cn3)cc2F)C1=O [Compound 137, (S)-4-((1-(2,5-difluoro-4-(5-fluoro-4-(2-fluoropropan-2-yl)pyridin-2-yl)phenyl)ethyl)amino)-2-ethyl-2,3-dihydro-1H-pyrrolo[3,4-c]pyridin-1-one] as the compound, how does the IC50 [1] read?
Answer: < 100 nM

Question: And the IC50 (IDH1 R132C)?
Answer: < 100 nM

Question: And the IC50 (IDH1 R132H)?
Answer: < 100 nM

Question: What does the source list for CCN1Cc2c(ccnc2N[C@@H](C)c2cc(F)c(-c3cc(C(C)(C)C)ncc3O)cc2F)C1=O [Compound 138, (S)-4-((1-(4-(2-(tert-butyl)-5-hydroxypyridin-4-yl)-2,5-difluorophenyl)ethyl)amino)-2-ethyl-2,3-dihydro-1H-pyrrolo[3,4-c]pyridin-1-one]?
Answer: IC50 [1]: < 100 nM; IC50 (IDH1 R132C): < 100 nM; IC50 (IDH1 R132H): < 100 nM

Question: Which results are given for CCN1Cc2c(ccnc2N[C@@H](C)c2cc(F)c(-c3cc(C(C)(C)F)ncc3CF)cc2F)C1=O [Compound 139, (S)-4-((1-(2,5-difluoro-4-(5-(fluoromethyl)-2-(2-fluoropropan-2-yl)pyridin-4-yl)phenyl)ethyl)amino)-2-ethyl-2,3-dihydro-1H-pyrrolo[3,4-c]pyridin-1-one]?
Answer: IC50 [1]: < 100 nM; IC50 (IDH1 R132C): 100 to 500 nM; IC50 (IDH1 R132H): < 100 nM

Question: How did the IC50 [1] turn out when CCN1Cc2c(ccnc2N[C@@H](C)c2cc(F)c(-c3cc(C(C)(C)F)nc(OC)n3)cc2F)C1=O [Compound 141, (S)-4-((1-(2,5-difluoro-4-(6-(2-fluoropropan-2-yl)-2-methoxypyrimidin-4-yl)phenyl)ethyl)amino)-2-ethyl-2,3-dihydro-1H-pyrrolo[3,4-c]pyridin-1-one] was run?
Answer: < 100 nM

Question: And the IC50 (IDH1 R132C)?
Answer: < 100 nM

Question: What about the IC50 (IDH1 R132H) of the same compound?
Answer: < 100 nM

Question: Which results are given for CCN1Cc2c(ccnc2N[C@@H](C)c2cc(F)c(-c3cc(C(F)(F)F)cc(OC)n3)cc2F)C1=O [Compound 142, (S)-4-((1-(2,5-difluoro-4-(6-methoxy-4-(trifluoromethyl)pyridin-2-yl)phenyl)ethyl)amino)-2-ethyl-2,3-dihydro-1H-pyrrolo[3,4-c]pyridin-1-one]?
Answer: IC50 [1]: 100 to 500 nM; IC50 (IDH1 R132C): 100 to 500 nM; IC50 (IDH1 R132H): < 100 nM

Question: Which IC50 [1] does the source give for CCN1Cc2c(ccnc2N[C@@H](C)c2cc(F)c(-c3cc(C(F)(F)F)ncc3OC)cc2F)C1=O [Compound 143, (S)-4-((1-(2,5-difluoro-4-(5-methoxy-2-(trifluoromethyl)pyridin-4-yl)phenyl)ethyl)amino)-2-ethyl-2,3-dihydro-1H-pyrrolo[3,4-c]pyridin-1-one] here?
Answer: 100 to 500 nM

Question: And the IC50 (IDH1 R132C)?
Answer: 100 to 500 nM

Question: And the IC50 (IDH1 R132H)?
Answer: < 100 nM

Question: What does the source list for CCN1Cc2c(ccnc2N[C@@H](C)c2cc(F)c(-c3cc(C(F)(F)F)ncc3O)cc2F)C1=O [Compound 144, (S)-4-((1-(2,5-difluoro-4-(5-hydroxy-2-(trifluoromethyl)pyridin-4-yl)phenyl)ethyl)amino)-2-ethyl-2,3-dihydro-1H-pyrrolo[3,4-c]pyridin-1-one]?
Answer: IC50 [1]: > 1000 nM; IC50 (IDH1 R132C): > 1000 nM; IC50 (IDH1 R132H): > 1000 nM

Question: How did the IC50 [1] turn out when CCN1Cc2c(ccnc2N[C@@H](C)c2cc(F)c(-c3cc(C(F)(F)F)ncc3OCOC)cc2F)C1=O [Compound 145, (S)-4-((1-(2,5-difluoro-4-(5-(methoxymethoxy)-2-(trifluoromethyl)pyridin-4-yl)phenyl)ethyl)amino)-2-ethyl-2,3-dihydro-1H-pyrrolo[3,4-c]pyridin-1-one] was run?
Answer: 100 to 500 nM

Question: And the IC50 (IDH1 R132C)?
Answer: < 100 nM

Question: What about the IC50 (IDH1 R132H) of the same compound?
Answer: < 100 nM

Question: For CCN1Cc2c(ccnc2N[C@@H](C)c2cc(F)c(-c3cc4c(cn3)COC4(C)C)cc2F)C1=O [Compound 146, (S)-4-((1-(4-(1,1-dimethyl-1,3-dihydrofuro[3,4-c]pyridin-6-yl)-2,5-difluorophenyl)ethyl)amino)-2-ethyl-2,3-dihydro-1H-pyrrolo[3,4-c]pyridin-1-one], which IC50 [1] is on record?
Answer: < 100 nM

Question: What about the IC50 (IDH1 R132C) of the same compound?
Answer: < 100 nM

Question: And the IC50 (IDH1 R132H)?
Answer: < 100 nM

Question: Which IC50 [1] does the source give for CCN1Cc2c(ccnc2N[C@@H](C)c2cc(F)c(-c3cc(C(C)(C)F)c(COC)cn3)cc2F)C1=O [Compound 147, (S)-4-((1-(2,5-difluoro-4-(4-(2-fluoropropan-2-yl)-5-(methoxymethyl)pyridin-2-yl)phenyl)ethyl)amino)-2-ethyl-2,3-dihydro-1H-pyrrolo[3,4-c]pyridin-1-one] here?
Answer: < 100 nM

Question: And the IC50 (IDH1 R132C)?
Answer: < 100 nM

Question: What about the IC50 (IDH1 R132H) of the same compound?
Answer: < 100 nM

Question: Which IC50 [1] does the source give for CCN1Cc2c(ccnc2N[C@@H](C)c2cc(F)c(-c3cc(C(C)(C)F)c(C(F)(F)F)cn3)cc2F)C1=O [Compound 148, (S)-4-((1-(2,5-difluoro-4-(4-(2-fluoropropan-2-yl)-5-(trifluoromethyl)pyridin-2-yl)phenyl)ethyl)amino)-2-ethyl-2,3-dihydro-1H-pyrrolo[3,4-c]pyridin-1-one] here?
Answer: < 100 nM

Question: What about the IC50 (IDH1 R132C) of the same compound?
Answer: < 100 nM

Question: What about the IC50 (IDH1 R132H) of the same compound?
Answer: < 100 nM

Question: With CCN1Cc2c(ccnc2N[C@@H](C)c2cc(F)c(-c3ccc(OC)c(C(C)(C)C)n3)cc2F)C1=O [Compound 149, (S)-4-((1-(4-(6-(tert-butyl)-5-methoxypyridin-2-yl)-2,5-difluorophenyl)ethyl)amino)-2-ethyl-2,3-dihydro-1H-pyrrolo[3,4-c]pyridin-1-one] as the compound, how does the IC50 [1] read?
Answer: 100 to 500 nM

Question: And the IC50 (IDH1 R132C)?
Answer: 100 to 500 nM

Question: What about the IC50 (IDH1 R132H) of the same compound?
Answer: < 100 nM

Question: Which IC50 [1] does the source give for CCN1Cc2c(ccnc2N[C@@H](C)c2cc(F)c(-c3cc(C(C)(C)C)c(OC)cn3)cc2F)C1=O [Compound 150, (S)-4-((1-(4-(4-(tert-butyl)-5-methoxypyridin-2-yl)-2,5-difluorophenyl)ethyl)amino)-2-ethyl-2,3-dihydro-1H-pyrrolo[3,4-c]pyridin-1-one] here?
Answer: < 100 nM

Question: What about the IC50 (IDH1 R132C) of the same compound?
Answer: < 100 nM

Question: And the IC50 (IDH1 R132H)?
Answer: < 100 nM

Question: With CCN1Cc2c(ccnc2N[C@@H](C)c2cc(F)c(-c3cc(OC(C)(C)C)ncc3C)cc2F)C1=O [Compound 151, (S)-4-((1-(4-(2-(tert-butoxy)-5-methylpyridin-4-yl)-2,5-difluorophenyl)ethyl)amino)-2-ethyl-2,3-dihydro-1H-pyrrolo[3,4-c]pyridin-1-one] as the compound, how does the IC50 [1] read?
Answer: < 100 nM

Question: What about the IC50 (IDH1 R132C) of the same compound?
Answer: 100 to 500 nM

Question: And the IC50 (IDH1 R132H)?
Answer: < 100 nM

Question: How did the IC50 [1] turn out when CCN1Cc2c(ccnc2N[C@@H](C)c2cc(F)c(-c3cc(OC(C)(C)C)c(Cl)cn3)cc2F)C1=O [Compound 152, (S)-4-((1-(4-(4-(tert-butoxy)-5-chloropyridin-2-yl)-2,5-difluorophenyl)ethyl)amino)-2-ethyl-2,3-dihydro-1H-pyrrolo[3,4-c]pyridin-1-one] was run?
Answer: < 100 nM

Question: What about the IC50 (IDH1 R132C) of the same compound?
Answer: < 100 nM

Question: And the IC50 (IDH1 R132H)?
Answer: < 100 nM

Question: CCN1Cc2c(ccnc2N[C@@H](C)c2cc(F)c(-c3cc(C(C)(C)F)c(OC)nn3)cc2F)C1=O [Compound 153, (S)-4-((1-(2,5-difluoro-4-(5-(2-fluoropropan-2-yl)-6-methoxypyridazin-3-yl)phenyl)ethyl)amino)-2-ethyl-2,3-dihydro-1H-pyrrolo[3,4-c]pyridin-1-one] was tested. Which IC50 [1] did it give?
Answer: < 100 nM

Question: And the IC50 (IDH1 R132C)?
Answer: < 100 nM

Question: And the IC50 (IDH1 R132H)?
Answer: < 100 nM
